# ChEMBL document CHEMBL1201862, “PubChem BioAssay data set” (2004)
#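 Assay format: 96-well plates, 48-hour exposure. GI50 marks 50% less growth.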 Activity calls are given as the source filed them. Rule as the data show it: active = GI50 up to about 1.1 µM and inactive = higher.
# Assays:
# Experiment in all cases: NCI tumour cell line growth inhibition, 48 h
# 786-0 = tested on: 786-0
# A498 = tested on: A498
# A549 = tested on: A549
# ACHN = tested on: ACHN
# CAKI-1 = tested on: CAKI-1
# CCRF-CEM = tested on: CCRF-CEM
# COLO 205 = tested on: COLO 205
# DLD-1 = tested on: DLD-1
# DMS-114 = tested on: DMS-114
# DMS-273 = tested on: DMS-273
# EKVX = tested on: EKVX
# HCC 2998 = tested on: HCC 2998
# HCT-116 = tested on: HCT-116
# HCT-15 = tested on: HCT-15
# HL-60 = tested on: HL-60
# HOP-18 = tested on: HOP-18
# HOP-62 = tested on: HOP-62
# HOP-92 = tested on: HOP-92
# HT-29 = tested on: HT-29
# IGROV-1 = tested on: IGROV-1
# K562 = tested on: K562
# KM-20L2 = tested on: KM-20L2
# KM12 = tested on: KM12
# LOX IMVI = tested on: LOX IMVI
# LXFL 529 = tested on: LXFL 529
# M14 = tested on: M14
# M19-MEL = tested on: M19-MEL
# Malme-3M = tested on: Malme-3M
# NCI-H226 = tested on: NCI-H226
# NCI-H23 = tested on: NCI-H23
# NCI-H460 = tested on: NCI-H460
# NCI-H522 = tested on: NCI-H522
# OVCAR-3 = tested on: OVCAR-3
# OVCAR-4 = tested on: OVCAR-4
# OVCAR-5 = tested on: OVCAR-5
# OVCAR-8 = tested on: OVCAR-8
# RPMI-8226 = tested on: RPMI-8226
# RXF 393 = tested on: RXF 393
# RXF 631 = tested on: RXF 631
# SF-268 = tested on: SF-268
# SF-295 = tested on: SF-295
# SF-539 = tested on: SF-539
# SK-MEL-28 = tested on: SK-MEL-28
# SK-MEL-2 = tested on: SK-MEL-2
# SK-MEL-5 = tested on: SK-MEL-5
# SK-OV-3 = tested on: SK-OV-3
# SN12C = tested on: SN12C
# SNB-75 = tested on: SNB-75
# SR = tested on: SR
# SW-620 = tested on: SW-620
# TK-10 = tested on: TK-10
# U-251 = tested on: U-251
# UACC-257 = tested on: UACC-257
# UACC-62 = tested on: UACC-62
# UO-31 = tested on: UO-31
# MOLT-4 = tested on: MOLT-4
# SNB-19 = tested on: SNB-19
# SNB-78 = tested on: SNB-78
smiles,measurement,setting,value
CN(C)CC1CCCC/C1=N/OC(=O)c1ccc(Cl)c(Cl)c1 (stereo not given),GI50,786-0,> 100 µM (inactive)
same,GI50,A498,> 100 µM (inactive)
same,GI50,A549,> 100 µM (inactive)
same,GI50,ACHN,> 100 µM (inactive)
same,GI50,CAKI-1,> 100 µM (inactive)
same,GI50,CCRF-CEM,> 100 µM (inactive)
same,GI50,COLO 205,> 100 µM (inactive)
same,GI50,DLD-1,> 100 µM (inactive)
same,GI50,DMS-114,> 100 µM (inactive)
same,GI50,DMS-273,> 100 µM (inactive)
same,GI50,EKVX,> 100 µM (inactive)
same,GI50,HCC 2998,> 100 µM (inactive)
same,GI50,HCT-116,> 100 µM (inactive)
same,GI50,HCT-15,> 100 µM
same,GI50,HL-60,> 100 µM (inactive)
same,GI50,HOP-18,> 100 µM (inactive)
same,GI50,HOP-62,> 100 µM (inactive)
same,GI50,HOP-92,66.5 µM (inactive)
same,GI50,HT-29,> 100 µM (inactive)
same,GI50,IGROV-1,> 100 µM (inactive)
same,GI50,K562,> 100 µM (inactive)
same,GI50,KM-20L2,> 100 µM (inactive)
same,GI50,KM12,> 100 µM (inactive)
same,GI50,LOX IMVI,> 100 µM (inactive)
same,GI50,LXFL 529,> 100 µM (inactive)
same,GI50,M14,> 100 µM (inactive)
same,GI50,M19-MEL,> 100 µM (inactive)
same,GI50,Malme-3M,> 100 µM (inactive)
same,GI50,NCI-H226,> 100 µM (inactive)
same,GI50,NCI-H23,> 100 µM (inactive)
same,GI50,NCI-H460,> 100 µM (inactive)
same,GI50,NCI-H522,> 100 µM (inactive)
same,GI50,OVCAR-3,> 100 µM (inactive)
same,GI50,OVCAR-4,> 100 µM (inactive)
same,GI50,OVCAR-5,> 100 µM (inactive)
same,GI50,OVCAR-8,> 100 µM (inactive)
same,GI50,RPMI-8226,> 100 µM (inactive)
same,GI50,RXF 393,> 100 µM (inactive)
same,GI50,RXF 631,> 100 µM (inactive)
same,GI50,SF-268,> 100 µM (inactive)
same,GI50,SF-295,> 100 µM (inactive)
same,GI50,SF-539,> 100 µM (inactive)
same,GI50,SK-MEL-28,> 100 µM (inactive)
same,GI50,SK-MEL-2,> 100 µM (inactive)
same,GI50,SK-MEL-5,> 100 µM (inactive)
same,GI50,SK-OV-3,> 100 µM (inactive)
same,GI50,SN12C,> 100 µM (inactive)
same,GI50,SNB-75,33.3 µM (inactive)
same,GI50,SR,> 100 µM (inactive)
same,GI50,SW-620,> 100 µM (inactive)
same,GI50,TK-10,> 100 µM (inactive)
same,GI50,U-251,> 100 µM (inactive)
same,GI50,UACC-257,> 100 µM (inactive)
same,GI50,UACC-62,> 100 µM (inactive)
same,GI50,UO-31,70.6 µM (inactive)
O=C(O)C(CS)Nc1c2ccccc2[n+]([O-])c2ccccc12 (stereo not given),GI50,786-0,> 100 µM (inactive)
same,GI50,A498,> 100 µM (inactive)
same,GI50,A549,> 100 µM (inactive)
same,GI50,ACHN,> 100 µM (inactive)
same,GI50,CAKI-1,> 100 µM (inactive)
same,GI50,CCRF-CEM,> 100 µM (inactive)
same,GI50,COLO 205,> 100 µM (inactive)
same,GI50,DLD-1,95.9 µM (inactive)
same,GI50,DMS-114,> 100 µM (inactive)
same,GI50,DMS-273,> 100 µM (inactive)
same,GI50,EKVX,80.4 µM (inactive)
same,GI50,HCC 2998,> 100 µM (inactive)
same,GI50,HCT-116,92 µM (inactive)
same,GI50,HCT-15,> 100 µM
same,GI50,HL-60,50.2 µM (inactive)
same,GI50,HOP-18,> 100 µM (inactive)
same,GI50,HOP-62,> 100 µM (inactive)
same,GI50,HT-29,> 100 µM (inactive)
same,GI50,IGROV-1,> 100 µM (inactive)
same,GI50,K562,78.9 µM (inactive)
same,GI50,KM-20L2,> 100 µM (inactive)
same,GI50,KM12,> 100 µM (inactive)
same,GI50,LOX IMVI,> 100 µM (inactive)
same,GI50,LXFL 529,53.7 µM (inactive)
same,GI50,M14,> 100 µM (inactive)
same,GI50,M19-MEL,> 100 µM (inactive)
same,GI50,MOLT-4,> 100 µM (inactive)
same,GI50,Malme-3M,> 100 µM (inactive)
same,GI50,NCI-H226,> 100 µM (inactive)
same,GI50,NCI-H23,87.7 µM (inactive)
same,GI50,NCI-H460,> 100 µM (inactive)
same,GI50,NCI-H522,56.9 µM (inactive)
same,GI50,OVCAR-3,> 100 µM (inactive)
same,GI50,OVCAR-4,> 100 µM (inactive)
same,GI50,OVCAR-5,> 100 µM (inactive)
same,GI50,OVCAR-8,> 100 µM (inactive)
same,GI50,RPMI-8226,29.1 µM (inactive)
same,GI50,RXF 631,> 100 µM (inactive)
same,GI50,SF-268,> 100 µM (inactive)
same,GI50,SF-295,> 100 µM (inactive)
same,GI50,SK-MEL-28,> 100 µM (inactive)
same,GI50,SK-MEL-2,> 100 µM (inactive)
same,GI50,SK-MEL-5,76 µM (inactive)
same,GI50,SK-OV-3,> 100 µM (inactive)
same,GI50,SN12C,> 100 µM (inactive)
same,GI50,SNB-19,> 100 µM (inactive)
same,GI50,SNB-75,> 100 µM (inactive)
same,GI50,SNB-78,> 100 µM (inactive)
same,GI50,SW-620,> 100 µM (inactive)
same,GI50,TK-10,> 100 µM (inactive)
same,GI50,U-251,> 100 µM (inactive)
same,GI50,UACC-257,> 100 µM (inactive)
same,GI50,UACC-62,> 100 µM (inactive)
same,GI50,UO-31,49.8 µM (inactive)
COc1ccc(C(=O)O/N=C2/CCCCC2CN(C)C)cc1 (stereo not given),GI50,786-0,> 100 µM (inactive)
same,GI50,A498,> 100 µM (inactive)
same,GI50,A549,> 100 µM (inactive)
same,GI50,ACHN,> 100 µM (inactive)
same,GI50,CAKI-1,> 100 µM (inactive)
same,GI50,CCRF-CEM,> 100 µM (inactive)
same,GI50,COLO 205,> 100 µM (inactive)
same,GI50,DLD-1,> 100 µM (inactive)
same,GI50,DMS-273,> 100 µM (inactive)
same,GI50,EKVX,> 100 µM (inactive)
same,GI50,HCC 2998,> 100 µM (inactive)
same,GI50,HCT-116,> 100 µM (inactive)
same,GI50,HCT-15,> 100 µM
same,GI50,HL-60,> 100 µM (inactive)
same,GI50,HOP-18,> 100 µM (inactive)
same,GI50,HOP-62,> 100 µM (inactive)
same,GI50,HOP-92,> 100 µM (inactive)
same,GI50,HT-29,> 100 µM (inactive)
same,GI50,IGROV-1,> 100 µM (inactive)
same,GI50,K562,> 100 µM (inactive)
same,GI50,KM-20L2,> 100 µM (inactive)
same,GI50,KM12,> 100 µM (inactive)
same,GI50,LOX IMVI,> 100 µM (inactive)
same,GI50,LXFL 529,> 100 µM (inactive)
same,GI50,M14,> 100 µM (inactive)
same,GI50,M19-MEL,> 100 µM (inactive)
same,GI50,MOLT-4,> 100 µM (inactive)
same,GI50,Malme-3M,> 100 µM (inactive)
same,GI50,NCI-H226,> 100 µM (inactive)
same,GI50,NCI-H23,> 100 µM (inactive)
same,GI50,NCI-H460,> 100 µM (inactive)
same,GI50,NCI-H522,> 100 µM (inactive)
same,GI50,OVCAR-3,> 100 µM (inactive)
same,GI50,OVCAR-4,> 100 µM (inactive)
same,GI50,OVCAR-5,> 100 µM (inactive)
same,GI50,OVCAR-8,> 100 µM (inactive)
same,GI50,RPMI-8226,> 100 µM (inactive)
same,GI50,RXF 393,> 100 µM (inactive)
same,GI50,RXF 631,> 100 µM (inactive)
same,GI50,SF-268,> 10 µM (inactive)
same,GI50,SF-295,> 100 µM (inactive)
same,GI50,SF-539,> 100 µM (inactive)
same,GI50,SK-MEL-28,> 100 µM (inactive)
same,GI50,SK-MEL-2,> 100 µM (inactive)
same,GI50,SK-MEL-5,> 100 µM (inactive)
same,GI50,SK-OV-3,> 100 µM (inactive)
same,GI50,SN12C,> 100 µM (inactive)
same,GI50,SNB-75,> 100 µM (inactive)
same,GI50,SNB-78,> 100 µM (inactive)
same,GI50,SR,> 100 µM (inactive)
same,GI50,SW-620,> 100 µM (inactive)
same,GI50,TK-10,> 100 µM (inactive)
same,GI50,U-251,> 100 µM (inactive)
same,GI50,UACC-257,> 100 µM (inactive)
same,GI50,UACC-62,> 100 µM (inactive)
same,GI50,UO-31,> 100 µM (inactive)
